# Source: ChEMBL document CHEMBL5331078, “1-Benzyloxy-5-phenyltetrazole derivatives highly active against androgen receptor-dependent prostate cancer cells” (Eur J Med Chem, 2023)
# Calls of active or inactive are those of the source. The rule behind the calls is not given here.
# How the values were obtained:
# [1] = system: CWR22R; assay: Antiproliferative activity against AR-v7 positive human 22Rv1 cells measured after 3 days by celltiter-glo luminescence assay; type: functional, cell-based; conditions: Homo sapiens, 22Rv1, 72 h; read-out: IC50
# [2] = Antiproliferative activity against Ar-luc mouse Adipose stromal cell measured after 3 days by celltiter-glo luminescence assay; type: toxicity, cell-based; conditions: Ar-luc mouse adipose stromal cells
# [3] = Elimination rate constant in rat at 5 mg/kg, iv measured upto 24 hrs by LC-MS/MS analysis; type: ADME, organism-based; conditions: in vivo
# [4] = Half life in rat at 5 mg/kg, iv measured upto 24 hrs by LC-MS/MS analysis; type: ADME, organism-based; conditions: in vivo
# [5] = MRT (0 to infinity) in rat at 5 mg/kg, iv measured upto 24 hrs by LC-MS/MS analysis; type: ADME, organism-based; conditions: in vivo
# [6] = MRT (0 to t) in rat at 5 mg/kg, iv measured upto 24 hrs by LC-MS/MS analysis; type: ADME, organism-based; conditions: in vivo
# [7] = AUC (0 to t) in rat at 5 mg/kg, iv measured upto 24 hrs by LC-MS/MS analysis; type: ADME, organism-based; set-up: dose 5 mg/kg, time < 24 hrs, route iv; conditions: in vivo
# [8] = AUC (0 to infinity) in rat at 5 mg/kg, iv measured upto 24 hrs by LC-MS/MS analysis; type: ADME, organism-based; set-up: time < 24 hrs, dose 5 mg/kg, route iv; conditions: in vivo
# [9] = system: CWR22R; assay: Antitumor activity against human 22Rv1 cells xenografted in NOD-SCID mouse assessed as inhibition of tumor growth at 10 mg/kg/day, ip measured upto 20 days; type: functional, organism-based; conditions: time <= 20.0 day
# [10] = Toxicity in NOD-SCID mouse assessed as effect on body weight loss at 10 mg/kg/day, ip measured upto 20 days; type: organism-based; conditions: in vivo, 480 h, time < 20 day
# [11] = Partition coefficient, logD of the compound at pH 7.4 by HPLC analysis; type: physicochemical; conditions: octanol/water
# [12] = Kinetic solubility of the compound in 0.01 M HCl at pH 2 after 30 mins by nephelometry; type: physicochemical; conditions: read-out: Kinetic_solubility
# [13] = Kinetic solubility of the compound in phosphate buffer at pH 6.5 after 30 mins by nephelometry; type: physicochemical; conditions: read-out: Kinetic_solubility
# [14] = Metabolic stability in mouse liver microsomes assessed as half life incubated for 60 mins in presence of NADPH-regenerating system; type: ADME, Microsome; conditions: liver microsomes
# [15] = Metabolic stability in mouse liver microsomes assessed as intrinsic clearance incubated for 60 mins in presence of NADPH-regenerating system; type: ADME, Microsome; conditions: liver microsomes, read-out: CLH
# [16] = system: CWR22R; assay: Downregulation of androgen receptor in human 22Rv1 cells measured for 24 to 36 hrs by Western blot analysis; type: functional, cell-based; conditions: dose 0.5-10 µM, time 24-36 hrs
# [17] = system: CWR22R; assay: Downregulation of androgen receptor in human 22Rv1 cells at 0.5 to 10 uM by Western blot analysis; type: functional, cell-based; conditions: dose 0.5-10 µM, time 24-36 hrs, TDE = time-dependent effect
# [18] = system: CWR22R; assay: Downregulation of AR-v7 level in human 22Rv1 cells measured for 24 to 36 hrs by Western blot analysis; type: functional, cell-based; conditions: dose 0.5-10 µM, time 24-36 hrs
# [19] = system: CWR22R; assay: Downregulation of AR-v7 level in human 22Rv1 cells at 0.5 to 10 uM by Western blot analysis; type: functional, cell-based; conditions: dose 0.5-10 µM, time 24-36 hrs, TDE = time-dependent effect
# [20] = system: CWR22R; assay: Downregulation of AR-v7 level in human 22Rv1 cells at 0.5 to 10 uM measured after 36 hrs by Western blot analysis; type: functional, cell-based; conditions: dose 0.5-10 µM
# [21] = system: CWR22R; assay: Downregulation of Androgen receptor level in human 22Rv1 cells at 0.5 to 10 uM measured after 36 hrs by Western blot analysis; type: functional, cell-based; conditions: dose 0.5-10 µM
# [22] = system: CWR22R; assay: Downregulation of AR genes expression in human 22Rv1 cells at 1 uM measured after 24 to 36 hrs by RNA sequencing analysis; type: functional, cell-based; conditions: time 24-36 hrs
# [23] = system: CWR22R; assay: Downregulation of CDC6 gene expression in human 22Rv1 cells at 1 uM measured after 24 to 36 hrs by RNA sequencing analysis; type: functional, cell-based; conditions: time 24-36 hrs
# [24] = system: CWR22R; assay: Downregulation of CDC25A gene expression in human 22Rv1 cells at 1 uM measured after 24 to 36 hrs by RNA sequencing analysis; type: functional, cell-based; conditions: time 24-36 hrs
# [25] = system: CWR22R; assay: Downregulation of GREB1L gene expression in human 22Rv1 cells at 1 uM measured after 24 to 36 hrs by RNA sequencing analysis; type: functional, cell-based; conditions: time 24-36 hrs
# [26] = system: CWR22R; assay: Downregulation of E2F gene expression in human 22Rv1 cells at 1 uM measured after 24 to 36 hrs by RNA sequencing analysis; type: functional, cell-based; conditions: time 24-36 hrs
# [27] = system: CWR22R; assay: Downregulation of GRB10 gene expression in human 22Rv1 cells at 1 uM measured after 24 to 36 hrs by RNA sequencing analysis; type: functional, cell-based; conditions: time 24-36 hrs
# [28] = system: CWR22R; assay: Downregulation of SKP2 gene expression in human 22Rv1 cells at 1 uM measured after 24 to 36 hrs by RNA sequencing analysis; type: functional, cell-based; conditions: time 24-36 hrs
# [29] = system: CWR22R; assay: Downregulation of FEN1 gene expression in human 22Rv1 cells at 1 uM measured after 24 to 36 hrs by RNA sequencing analysis; type: functional, cell-based; conditions: time 24-36 hrs
# [30] = system: CWR22R; assay: Downregulation of POLE2 gene expression in human 22Rv1 cells at 1 uM measured after 24 to 36 hrs by RNA sequencing analysis; type: functional, cell-based; conditions: time 24-36 hrs
# [31] = system: CWR22R; assay: Downregulation of UHRF1 gene expression in human 22Rv1 cells at 1 uM measured after 24 to 36 hrs by RNA sequencing analysis; type: functional, cell-based; conditions: time 24-36 hrs
# [32] = system: CWR22R; assay: Downregulation of MCM10 gene expression in human 22Rv1 cells at 1 uM measured after 24 to 36 hrs by RNA sequencing analysis; type: functional, cell-based; conditions: time 24-36 hrs
# [33] = system: CWR22R; assay: Downregulation of GINS1 gene expression in human 22Rv1 cells at 1 uM measured after 24 to 36 hrs by RNA sequencing analysis; type: functional, cell-based; conditions: time 24-36 hrs
# [34] = system: CWR22R; assay: Downregulation of CDC7 gene expression in human 22Rv1 cells at 1 uM measured after 24 to 36 hrs by RNA sequencing analysis; type: functional, cell-based; conditions: time 24-36 hrs
# [35] = system: CWR22R; assay: Downregulation of PCNA gene expression in human 22Rv1 cells at 1 uM measured after 24 to 36 hrs by RNA sequencing analysis; type: functional, cell-based; conditions: time 24-36 hrs
# [36] = system: CWR22R; assay: Downregulation of RRM2 gene expression in human 22Rv1 cells at 1 uM measured after 24 to 36 hrs by RNA sequencing analysis; type: functional, cell-based; conditions: time 24-36 hrs
# [37] = system: CWR22R; assay: Downregulation of MYB gene expression in human 22Rv1 cells at 1 uM measured after 24 to 36 hrs by RNA sequencing analysis; type: functional, cell-based; conditions: time 24-36 hrs
# [38] = system: CWR22R; assay: Downregulation of RAD51D gene expression in human 22Rv1 cells at 1 uM measured after 24 to 36 hrs by RNA sequencing analysis; type: functional, cell-based; conditions: time 24-36 hrs
# [39] = system: CWR22R; assay: Downregulation of CHEK1 gene expression in human 22Rv1 cells at 1 uM measured after 24 to 36 hrs by RNA sequencing analysis; type: functional, cell-based; conditions: time 24-36 hrs
# [40] = system: CWR22R; assay: Downregulation of MTBP gene expression in human 22Rv1 cells at 1 uM measured after 24 to 36 hrs by RNA sequencing analysis; type: functional, cell-based; conditions: time 24-36 hrs
# [41] = system: CWR22R; assay: Downregulation of MYC gene expression in human 22Rv1 cells at 1 uM measured after 24 to 36 hrs by RNA sequencing analysis; type: functional, cell-based; conditions: time 24-36 hrs
# [42] = system: CWR22R; assay: Downregulation of CDK2 gene expression in human 22Rv1 cells at 1 uM measured after 24 to 36 hrs by RNA sequencing analysis; type: functional, cell-based; conditions: time 24-36 hrs
# [43] = system: CWR22R; assay: Downregulation of DNMT1 gene expression in human 22Rv1 cells at 1 uM measured after 24 to 36 hrs by RNA sequencing analysis; type: functional, cell-based; conditions: time 24-36 hrs
structure (smiles),measurement,setting,value
Clc1ccc(COn2nnnc2-c2ccc(Cl)cc2)cc1,IC50,[1],11 nM
same,IC50 at 3 days,[2],> 100 µM
same,k el at 24 h,[3],0.000292 s⁻¹
same,half-life,[4],55.1 min
same,MRT inf,[5],20.2 min
same,MRT last at 24 h,[6],16.3 min
same,AUC(0-t) at 24 h,[7],1080 ng·h/mL
same,AUC(0-inf),[8],1100 ng·h/mL
same,Activity,[9],Active
same,Activity,[10],Non-Toxic
same,logD,[11],4.5
same,solubility kinetic at 0.5 h,[12],< 1.6 µg/mL
same,solubility kinetic at 0.5 h,[13],< 1.6 µg/mL
same,half-life,[14],21 min
same,microsomal CLint,[15],21 µL/min/mg
same,Activity,[16],Dose-Dependent Effect
same,Activity,[17],Tde
same,Activity,[18],Dose-Dependent Effect
same,Activity,[19],Tde
same,Activity,[20],Active
same,Activity,[21],Active
same,Activity,[22],Active
same,Activity,[23],Active
same,Activity,[24],Active
same,Activity,[25],Active
same,Activity,[26],Active
same,Activity,[27],Active
same,Activity,[28],Active
same,Activity,[29],Active
same,Activity,[30],Active
same,Activity,[31],Active
same,Activity,[32],Active
same,Activity,[33],Active
same,Activity,[34],Active
same,Activity,[35],Active
same,Activity,[36],Active
same,Activity,[37],Active
same,Activity,[38],Active
same,Activity,[39],Active
same,Activity,[40],Active
same,Activity,[41],Active
same,Activity,[42],Active
same,Activity,[43],Active
